According to ChEMBL document CHEMBL1614632, “Trend analysis of a database of intravenous pharmacokinetic parameters in humans for 670 drug compounds” (Drug Metab Dispos, 2008):
Bridge positions count the residues as written; N and C are the ends. Square brackets hold non-standard residues; d marks the D form. Peptide text beside a SMILES is read from it. hArg = N=C(N)NCCCC[C@H](N)C(=O)O; Mpa = O=C(O)CCS

Tests used:
[1] = clinical; details: human, in vivo, iv, Vdss
[2] = clinical; details: human, in vivo, iv, CL
[3] = clinical; details: human, in vivo, iv
[4] = clinical; details: human, in vivo, iv; remark: listed apart in the source
[5] = clinical; details: human, in vivo, iv, t1/2

SMILES | Vd [1] | clearance [2] | fraction unbound [3] | MRT [4] | half-life [5]
C/C=C/C[C@@H](C)C(=O)[C@H]1C(=O)N[C@@H](C(C)C)C(=O)N(C)CC(=O)N(C)[C@@H](CC(C)C)C(=O)N[C@@H](C(C)C)C(=O)N(C)[C@@H](CC(C)C)C(=O)N[C@@H](C)C(=O)N[C@H](C)C(=O)N(C)[C@@H](CC(C)C)C(=O)N(C)[C@@H](CC(C)C)C(=O)N(C)[C@@H](C(C)C)C(=O)N1C [VALSPODAR] | 1.8 L/kg | 2.6 mL/min/kg | 0.022 | 12 h | 10 h
COCC(=O)O[C@]1(CCN(C)CCCc2nc3ccccc3[nH]2)CCc2cc(F)ccc2[C@@H]1C(C)C [MIBEFRADIL] | 3.1 L/kg | 4 mL/min/kg | 0.005 | 13 h | 13 h
CN1C(=O)NC(=O)C(C)(C2=CCCCC2)C1=O (stereo not given) [HEXOBARBITAL] | 1.1 L/kg | 3.4 mL/min/kg | 0.53 | 5.4 h | 4.9 h
CN[C@@H]1[C@@H](O)[C@@H](O[C@@H]2[C@@H](O)[C@H](O[C@H]3OC(CN)=CC[C@H]3N)[C@@H](N)C[C@H]2N)OC[C@]1(C)O [SISOMICIN] | 0.19 L/kg | 1 mL/min/kg | 0.15 | 3.2 h | 2.4 h
O=c1c(O)c(-c2ccc(O)c(O)c2)oc2cc(O)cc(O)c12 [QUERCETIN] | 0.12 L/kg | 11 mL/min/kg | 0.009 | 0.2 h | 0.6 h
CCC1(c2cccc(O)c2)CCCCN(C)C1 (stereo not given) [MEPTAZINOL] | 3.3 L/kg | 28 mL/min/kg | 0.73 | 2 h | 1.7 h
CO/N=C(\C(=O)N[C@@H]1C(=O)N2C(C(=O)O)=C(CSc3nc(C)c(CC(=O)O)s3)CS[C@H]12)c1csc(N)n1 [CEFODIZIME] | 0.054 L/kg | 0.61 mL/min/kg | 0.18 | 1.5 h | 4.2 h
CN(C)[C@@H]1C(O)=C(C(N)=O)C(=O)[C@@]2(O)C(O)=C3C(=O)c4c(O)ccc(Cl)c4[C@@H](O)[C@H]3C[C@@H]12 [DEMECLOCYCLINE] | 1.3 L/kg | 1.1 mL/min/kg | 0.59 | 17 h | 12 h
O=C1c2c(O)ccc(O)c2C(=O)c2c(NCCNCCO)ccc(NCCNCCO)c21 [MITOXANTRONE] | 12 L/kg | 7.9 mL/min/kg | 0.25 | 25 h | 53 h
CC(=O)N[C@@H](CS)C(=O)O [ACETYLCYSTEINE] | 0.55 L/kg | 3.1 mL/min/kg | 0.17 | 3 h | 5.5 h
NC[C@H]1O[C@H](O[C@H]2[C@H](O)[C@@H](O[C@H]3O[C@H](CO)[C@@H](O)[C@H](N)[C@H]3O)[C@H](N)C[C@@H]2N)[C@H](N)C[C@@H]1O [TOBRAMYCIN] | 0.23 L/kg | 1.6 mL/min/kg | 1 | 2.4 h | 2 h
CN(C)[C@@H]1C(O)=C(C(N)=O)C(=O)[C@@]2(O)C(O)=C3C(=O)c4c(O)cccc4[C@@](C)(O)[C@H]3[C@H](O)[C@@H]12 [OXYTETRACYCLINE] | 1.7 L/kg | 2 mL/min/kg | 0.9 | 12 h | 10 h
CC(=O)Nc1nnc(S(N)(=O)=O)s1 [ACETAZOLAMIDE] | 0.37 L/kg | 0.65 mL/min/kg | 0.04 | 9.5 h | 13 h
CCOC(=O)C1(c2ccccc2)CCC=CC1N(C)C (stereo not given) [TILIDINE] | 4 L/kg | 16 mL/min/kg | 0.21 | 4.2 h | 5 h
CCCc1cc(=O)[nH]c(=S)[nH]1 [PROPYLTHIOURACIL] | 0.34 L/kg | 3.1 mL/min/kg | 0.18 | 1.8 h | 1.3 h
Cc1ccc(C(=O)c2cc(O)c(O)c([N+](=O)[O-])c2)cc1 [TOLCAPONE] | 0.12 L/kg | 1.9 mL/min/kg | 0.0012 | 1.1 h | 1.1 h
O.O=P(O)(O)C(O)(Cn1ccnc1)P(=O)(O)O [ZOLEDRONIC ACID] | 0.6 L/kg | 2.2 mL/min/kg | 0.78 | 4.5 h | 11 h
Nc1nc(N)c2nc(-c3ccccc3)c(N)nc2n1 | 13 L/kg | 63 mL/min/kg | 0.42 | 3.4 h | 4.3 h
CCOC(=O)C1(c2ccccc2)CCN(C)CC1 [MEPERIDINE] | 2.3 L/kg | 4.9 mL/min/kg | 0.42 | 6.4 h | 7.9 h
CC[C@@H](CO)NCCN[C@@H](CC)CO [ETHAMBUTOL] | 1.7 L/kg | 10 mL/min/kg | 0.18 | 2.7 h | 3.1 h
Nc1nc(F)nc2c1ncn2[C@@H]1O[C@H](CO)[C@@H](O)[C@@H]1O [FLUDARABINE] | 2.2 L/kg | 3.2 mL/min/kg | 0.76 | 12 h | 11 h
CC(=O)O[C@H]1C(=O)[C@@]2(C)[C@H]([C@H](OC(=O)c3ccccc3)[C@]3(O)C[C@H](OC(=O)[C@H](O)[C@@H](NC(=O)c4ccccc4)c4ccccc4)C(C)=C1C3(C)C)[C@]1(OC(C)=O)CO[C@@H]1C[C@@H]2O [PACLITAXEL] | 3 L/kg | 6.4 mL/min/kg | 0.12 | 7.8 h | 11 h
N=C(N)NCCCC[C@@H]1NC(=O)CCSSC[C@@H](C(N)=O)NC(=O)[C@@H]2CCCN2C(=O)[C@H](Cc2c[nH]c3ccccc23)NC(=O)[C@H](CC(=O)O)NC(=O)CNC1=O [EPTIFIBATIDE] ([Mpa][hArg]GDWPC-NH2; disulfide 1-7) | 0.17 L/kg | 1.2 mL/min/kg | 0.75 | 2.4 h | 4.2 h
CC(=O)Nc1c(I)c(C(=O)O)c(I)c(N(C)C(C)=O)c1I [METRIZOIC ACID] | 0.17 L/kg | 2.7 mL/min/kg | 1 | 1 h | 1.3 h
CC(C)c1cccc(C(C)C)c1O [PROPOFOL] | 4.7 L/kg | 36 mL/min/kg | 0.016 | 2.2 h | 3.2 h
CN[C@H]1C(=O)N[C@@H]2Cc3ccc(cc3)Oc3cc4cc(c3O[C@@H]3O[C@H](C(=O)O)[C@@H](O)[C@H](O)[C@H]3NC(=O)CCCCCCCCC(C)C)Oc3ccc(cc3Cl)[C@@H](O)[C@@H]3NC(=O)[C@H](NC(=O)[C@@H]4NC(=O)[C@@H](NC2=O)c2cc(cc(O)c2Cl)Oc2cc1ccc2O)c1ccc(O)c(c1)-c1c(O[C@H]2O[C@H](CO)[C@@H](O)[C@H](O)[C@@H]2O)cc(O)cc1[C@@H](C(=O)NCCCN(C)C)NC3=O [DALBAVANCIN] | 0.14 L/kg | 0.01 mL/min/kg | 0.02 | 230 h | 170 h
CN(C)CCc1c[nH]c2ccc(CS(=O)(=O)N3CCCC3)cc12 [ALMOTRIPTAN] | 2.2 L/kg | 8.9 mL/min/kg | 0.6 | 4.2 h | 3.4 h
CO[C@@]1(NC(=O)CSCC#N)C(=O)N2C(C(=O)O)=C(CSc3nnnn3C)CS[C@@H]21 [CEFMETAZOLE] | 0.13 L/kg | 1.5 mL/min/kg | 0.15 | 1.5 h | 1.5 h
